In ChEMBL document CHEMBL4725257, “Investigation into the influence of an acrylic acid acceptor in organic D-π-A sensitizers against phototoxicity” (Bioorg Med Chem, 2020):
pIC50: −log10 of the molar value.

Tests used:
HeLa [1] = assay: Phototoxicity against human HeLa cells assessed as reduction in cell viability preincubated for 1 hr followed by white LED irradiation for 15 mins and measured after 48 hrs by MTT assay; assay type: functional, cell-based; conditions: light or radiation study
HeLa [2] = assay: Cytotoxicity against human HeLa cells assessed as reduction in cell viability incubated for 48 hrs measured under dark conditions by MTT assay; assay type: functional, cell-based
[3] = Drug uptake in mitochondria of human HeLa cell by fluorescence confocal microscopy; assay type: ADME
[4] = Drug uptake in lysosomes of human HeLa cell by fluorescence confocal microscopy; assay type: ADME, subcellular, Lysosome
[5] = Drug uptake in human HeLa cells at 20 uM incubated for 1 hr at 37 degC by fluorescence based analysis; assay type: ADME, cell-based
[6] = Phototoxicity index, ratio of IC50 for cytotoxicity against human HeLa cells measured under dark condition to IC50 for phototoxicity against human HeLa cells upon white LED light irradiation; assay type: functional
[7] = Drug uptake in human HeLa cells at 20 uM incubated for 1 hr at 4 degC by fluorescence based analysis; assay type: ADME, cell-based
[8] = Photo-oxidation of L-tryptophan assessed as oxidative damage at 10 uM irradiated with white LED light at 15 mins interval for 60 mins by fluorescence based analysis; assay type: ADME; conditions: 1 h
[9] = Drug uptake in human HeLa cells at 20 uM pretreated with endosome fusion inhibitor, wortmannin for 1 hr followed incubation with compound for 1 hr by fluorescence based analysis; assay type: ADME, cell-based
[10] = Drug uptake in human HeLa cells at 20 uM pretreated with clathrin-mediated endocytosis inhibitor, sucrose for 1 hr followed by incubation with compound for 1 hr by fluorescence based analysis; assay type: ADME, cell-based
[11] = Drug uptake in human HeLa cells at 20 uM pretreated with lipid raft endocytosis inhibitor, methyl-beta-cyclodextrin for 1 hr followed by incubation with compound for 1 hr by fluorescence based analysis; assay type: ADME, cell-based
[12] = Photo-oxidation of L-tryptophan assessed as oxidative damage at 10 uM irradiated with white LED light at 15 mins interval for 60 mins in presence of type 2 singlet oxygen quencher, NaN3 by fluorescence based analysis; assay type: ADME; conditions: 1 h
[13] = Drug uptake in human HeLa cell membrane by fluorescence confocal microscopy; assay type: ADME, cell membranes

N#CC(C#N)=Cc1ccc(-c2ccc(-c3ccc(N(c4ccccc4)c4ccccc4)cc3)s2)s1
pIC50 (HeLa [1]): < 4.13
pIC50 (HeLa [2]): < 4.00

COC(=O)/C(C#N)=C/c1ccc(-c2ccc(-c3ccc(N(c4ccccc4)c4ccccc4)cc3)s2)s1
pIC50 (HeLa [1]): < 4.00
pIC50 (HeLa [2]): < 4.00

O=C(O)/C=C/c1ccc(-c2ccc(-c3ccc(N(c4ccccc4)c4ccccc4)cc3)s2)s1
Drug uptake [3]: Active
Drug uptake [4]: Active
pIC50 (HeLa [1]): 7.34
Drug uptake [5]: 80 pmol
Ratio IC50 [6]: 460
pIC50 (HeLa [2]): 4.86
Drug uptake [7]: 40 pmol
Activity [8]: Active

O=C(O)c1ccc(-c2ccc(-c3ccc(N(c4ccccc4)c4ccccc4)cc3)s2)s1
Drug uptake [3]: Active
Drug uptake [4]: Active
Drug uptake [9]: 205 pmol
pIC50 (HeLa [1]): 5.11
Drug uptake [5]: 299 pmol
Drug uptake [10]: 188 pmol
Ratio IC50 [6]: >12
pIC50 (HeLa [2]): < 4.00
Drug uptake [7]: 64 pmol
Drug uptake [11]: 82 pmol
Activity [8]: Active

O=C(O)C(=Cc1ccc(-c2ccc(-c3ccc(N(c4ccccc4)c4ccccc4)cc3)s2)s1)C(=O)O
Drug uptake [3]: Active
Drug uptake [4]: Active
pIC50 (HeLa [1]): 6.17
Drug uptake [5]: 53 pmol
Activity [12]: Not Active
Ratio IC50 [6]: 91
pIC50 (HeLa [2]): 4.21
Drug uptake [7]: 36 pmol
Activity [8]: Active

O=C(O)CCc1ccc(-c2ccc(-c3ccc(N(c4ccccc4)c4ccccc4)cc3)s2)s1
Drug uptake [3]: Active
Drug uptake [4]: Active
Drug uptake [9]: 225 pmol
pIC50 (HeLa [1]): 5.62
Drug uptake [5]: 232 pmol
Drug uptake [10]: 199 pmol
Ratio IC50 [6]: 18
pIC50 (HeLa [2]): 4.36
Drug uptake [7]: 44 pmol
Drug uptake [11]: 98 pmol
Activity [8]: Active

c1ccc(N(c2ccccc2)c2ccc(-c3ccc(-c4cccs4)s3)cc2)cc1
Drug uptake [3]: Active
Drug uptake [4]: Active
pIC50 (HeLa [1]): < 4.00
Drug uptake [5]: 105 pmol
pIC50 (HeLa [2]): < 4.00
Drug uptake [7]: 68 pmol
Activity [8]: Active

C[n+]1ccc(/C=C/c2ccc(-c3ccc(-c4ccc(N(c5ccccc5)c5ccccc5)cc4)s3)s2)cc1.[I-]
Drug uptake [3]: Active
Drug uptake [4]: Active
Drug uptake [9]: 649 pmol
pIC50 (HeLa [1]): 6.03
Drug uptake [5]: 747 pmol
Drug uptake [13]: Active
Drug uptake [10]: 591 pmol
Ratio IC50 [6]: 3.5
pIC50 (HeLa [2]): 5.48
Drug uptake [7]: 344 pmol
Drug uptake [11]: 555 pmol
Activity [8]: Active
